Laboratory results taken from patent US5032597A, “Method of using phenylquinolinecarboxylic acids and derivatives for lymthoid leukemia treatment in a mammal” (priority 1987, dated 1991).
In brackets after ≈: the same amount, converted by molar mass. Several values for one entry are separate records, joined by “and”; a condition that tells them apart may be missing. Identical values can stand only once.

Experiments:
[1] = tested on: human colon carcinoma cells HCT-15; assay: Human colon tumor test in vitro, HCT-15 cell growth inhibition; format: cell-based; conditions: for IC50: Homo sapiens, HCT-15, 72 h, read-out: in vitro HCT-15 ID50 (50 percent inhibition of number of doublings); for in vitro HCT-15 ID50 (50 percent inhibition of number of doublings): HCT-15 cells, compound day 1 to day 4, 4320 min
Outline: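 HCT-15 human colon adenocarcinoma cells in RPMI 1640 with 10% heat-inactivated FCS, compound added on day 1 and cells counted by hemocytometer on day 4. ID50 is the concentration (μg/ml) halving the number of doublings, from log-log dose-response plots.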

L1210 leukemia = assay: Lymphoid Leukemia L1210, survival of tumored mice; format: in vivo, CD2F1 mice; conditions: Mus musculus, L1210, ip, 720 h
Outline: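 Male CD2 F1 mice, six per group, received 10^5 L1210 cells i.p. on day 0. Compounds in hydroxypropylcellulose, saline/Tween 80 or saline were given i.p. at various doses once daily on days 1-9, with vehicle controls.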

colon tumors = conditions: in vivo; cited from earlier work
human colon tumor HCT-15 = assay: Human colon tumor HCT-15 in athymic mice; format: in vivo, Swiss NU/NU athymic mice; conditions: for Average Tumor Weight, Day 7 (day treatment was started) / Average Tumor Weight, Day 21 / Net Tumor Weight gain, Day 21 / Tumor Growth Inhibition, Day 21: 5 days from day 7; for toxicity: 40 mg/kg i.p., athymic mice
Experimental: The compounds of Example 1 and 91 were also tested for effectiveness against a human colon tumor implanted in athymic mice.
The animals used were Swiss NU/NU athymic mice, weighing 20-22 g each at the start of the test. The test group consisted of twelve mice, seven males and five females. The HCT-15 tumor cell line, derived from a patient with adenocarcinoma of the colon, was maintained in culture. The tumor was implanted in each of the test mice by the subcutaneous injection in the flank region of 0.2 ml of physiological saline containing 10^7 HCT-15 cultured cells. Tumors appeared within 72 hours and treatment started one week after tumor inoculation.
Test compounds, suspended in methocel (0.5% in water) or dissolved in water, were injected intraperitoneally once daily for five consecutive days starting on day seven relative to the day of tumor inoculation (day 0). The body weight and the size of the tumor were determined daily. Tumor size was determined by two-dimensional caliper measurements. Tumor weight was estimated from the formula: [formula] tumor weight in which 1=length and w=width of the tumor in mm. The net tumor weight was determined by subtracting from the actual tumor weight at the time of evaluation the initial estimated tumor weight at the time treatment was started (day 7). Drug effectiveness was assessed on the basis of inhibition of the gain in net tumor weight in the treated (T) compared to that of the control (C) mice. Percent tumor growth inhibition was calculated by the formula: [formula]

melanotic melanoma B16 = assay: Melanotic Melanoma B16 test, survival of tumored mice; format: in vivo, B6C3F1 mice; conditions: for T/C × 100 (median survival time): 9 days, 2 tests
Experimental: The efficacy of the compounds of this invention against the transplanted mouse tumors was evaluated in test systems currently in use at the National Cancer Institute for the detection and assessment of anticancer activity. […] J. Cancer, 17, 129-142, (1981); Venditti, J. M., Seminars in Oncology, 8 (4) (1981); Goldin, A. and J. M. Venditti, in Recent Results in Cancer Research, 70, S. K. Carter and Y. Sakurai, Eds., Springer-Verlag, Berlin/Heidelberg, 1980].
The animals used were B6 C3 F1 mice, all of one sex, weighing a minimum of 18 g for males and 17 g for females and all within a 4 g weight range at the start of the test. The test group comprised 9 or 10 mice. The tumor was implanted in each of the test mice by the subcutaneous injection of 0.5 ml of a tumor homogenate prepared by homogenizing a 1 g portion of melanotic melanoma in 10 ml of cold physiological saline. The test compounds suspended in hydroxypropylcellulose were administered intraperitoneally at various doses once daily for nine consecutive days starting on day one relative to the day of tumor inoculation (day 0). The control mice received injections of hydroxypropylcellulose vehicle only. The mice were weighted and survivors were recorded on a regular basis for 60 days. The median survival times and the ratio of the median survival times for treated (T) to control (C) mice were calculated. The median survival time of the nontreated tumored mice ranged from 15 to 17 days. Drug effectiveness was assessed on the basis of the survival time. Results were expressed as a percentage of the control survival time (Survival Time T/C ×100%). The criterion for effectiveness was determined by: T/C ×100 ≥125 percent.

liver tissue = conditions: cited from earlier work
NF mouse sarcoma = conditions: in vitro; cited from earlier work

O=c1[nH]cc(F)c(=O)[nH]1 [5-Fluorouracil, reference compound]
IC50 [1]: 0.27 µg/mL (≈ 2.08 µM)
response vs control in vivo at 16 mg/kg (L1210 leukemia; read-out: L1210 Leukemia % T/C (median survival time)): 228%
effectiveness in treatment of colon tumors in man (colon tumors): not consistently effective
effectiveness (human colon tumor HCT-15; 20 mg/kg i.p.): ineffective
Average Tumor Weight, Day 7 (day treatment was started) (human colon tumor HCT-15; 20 mg/kg i.p. once daily): 56.7 mg
Average Tumor Weight, Day 21 (human colon tumor HCT-15; 20 mg/kg i.p. once daily): 421.7 mg
Net Tumor Weight gain, Day 21 (human colon tumor HCT-15; 20 mg/kg i.p. once daily): 365 mg
Tumor Growth Inhibition, Day 21 (human colon tumor HCT-15; 20 mg/kg i.p. once daily): 0%
toxicity (human colon tumor HCT-15): Toxic
toxicity (human colon tumor HCT-15; listed as 5-Fluorouacil): toxic

Cc1c(-c2ccc(C3CCCCC3)cc2)nc2ccc(F)cc2c1C(=O)[O-].[Na+] [Example 91, Sodium 2-(4-Cyclohexylphenyl)-6-fluoro-3-methylquinoline-4-carboxylate]
IC50 [1]: 0.04 µg/mL
response vs control in vivo at 40 mg/kg (L1210 leukemia; read-out: L1210 Leukemia % T/C (median survival time), 40 mg/kg i.p., marked * (not explained)): 140%
response vs control in vivo at 100 mg/kg (L1210 leukemia; read-out: L1210 Leukemia % T/C (median survival time), 100 mg/kg i.p., nonoptimal Q1DX9 instead of Q3DX9): 103%
Average Tumor Weight, Day 7 (day treatment was started) (human colon tumor HCT-15; 10 mg/kg i.p. once daily): 56.8 mg
Average Tumor Weight, Day 21 (human colon tumor HCT-15; 10 mg/kg i.p. once daily): 322.8 mg
Net Tumor Weight gain, Day 21 (human colon tumor HCT-15; 10 mg/kg i.p. once daily): 266.0 mg
Tumor Growth Inhibition, Day 21 (human colon tumor HCT-15; 10 mg/kg i.p. once daily): 10.0%
Average Tumor Weight, Day 7 (day treatment was started) (human colon tumor HCT-15; 20 mg/kg i.p. once daily): 56.2 mg
Average Tumor Weight, Day 21 (human colon tumor HCT-15; 20 mg/kg i.p. once daily): 245.1 mg
Net Tumor Weight gain, Day 21 (human colon tumor HCT-15; 20 mg/kg i.p. once daily): 188.9 mg
Tumor Growth Inhibition, Day 21 (human colon tumor HCT-15; 20 mg/kg i.p. once daily): 35.7%
Average Tumor Weight, Day 7 (day treatment was started) (human colon tumor HCT-15; 40 mg/kg i.p. once daily): 56.8 mg
Average Tumor Weight, Day 21 (human colon tumor HCT-15; 40 mg/kg i.p. once daily): 256.9 mg
Net Tumor Weight gain, Day 21 (human colon tumor HCT-15; 40 mg/kg i.p. once daily): 200.1 mg
Tumor Growth Inhibition, Day 21 (human colon tumor HCT-15; 40 mg/kg i.p. once daily): 32.0%

Cc1c(-c2ccc(C3CCCCC3)cc2)nc2ccc(F)cc2c1C(=O)O [Example 1, 2-(4-Cyclohexylphenyl)-6-fluoro-3-methylquinoline-4-carboxylic acid]
in vitro HCT-15 ID50 (50 percent inhibition of number of doublings) [1]: 0.05 µg/mL
response vs control in vivo at 200 mg/kg (L1210 leukemia; 200 mg/kg i.p., read-out: L1210 Leukemia % T/C (median survival time)): 189%
T/C × 100 (median survival time) (melanotic melanoma B16; 25 mg/kg i.p. once daily): 127% and 125%
T/C × 100 (median survival time) (melanotic melanoma B16; 50 mg/kg i.p. once daily): 148% and 138%
T/C × 100 (median survival time) (melanotic melanoma B16; 100 mg/kg i.p. once daily): 145% and 155%
T/C × 100 (median survival time) (melanotic melanoma B16; 200 mg/kg i.p. once daily): 145% and 150%
T/C × 100 (median survival time) (melanotic melanoma B16; 400 mg/kg i.p. once daily): 131% and 179%
effectiveness against B16 melanoma in mice (melanotic melanoma B16; criterion T/C × 100 ≥125 percent): effective against the B16 melanoma in mice
Average Tumor Weight, Day 7 (day treatment was started) (human colon tumor HCT-15; 50 mg/kg i.p. once daily): 56.3 mg
Average Tumor Weight, Day 21 (human colon tumor HCT-15; 50 mg/kg i.p. once daily): 252.9 mg
Net Tumor Weight gain, Day 21 (human colon tumor HCT-15; 50 mg/kg i.p. once daily): 196.6 mg
Tumor Growth Inhibition, Day 21 (human colon tumor HCT-15; 50 mg/kg i.p. once daily): 33.1%
Average Tumor Weight, Day 7 (day treatment was started) (human colon tumor HCT-15; 100 mg/kg i.p. once daily): 56.6 mg
Average Tumor Weight, Day 21 (human colon tumor HCT-15; 100 mg/kg i.p. once daily): 212.9 mg
Net Tumor Weight gain, Day 21 (human colon tumor HCT-15; 100 mg/kg i.p. once daily): 156.3 mg
Tumor Growth Inhibition, Day 21 (human colon tumor HCT-15; 100 mg/kg i.p. once daily): 46.8%
Average Tumor Weight, Day 7 (day treatment was started) (human colon tumor HCT-15; 200 mg/kg i.p. once daily): 56.8 mg
Average Tumor Weight, Day 21 (human colon tumor HCT-15; 200 mg/kg i.p. once daily): 156.3 mg
Net Tumor Weight gain, Day 21 (human colon tumor HCT-15; 200 mg/kg i.p. once daily): 99.4 mg
Tumor Growth Inhibition, Day 21 (human colon tumor HCT-15; 200 mg/kg i.p. once daily): 66.2%

O=C(O)c1cc(-c2ccccc2)nc2ccccc12 [cinchophen, 2-phenyl-4-quinoline carboxylic acid]
degeneration of liver tissue (liver tissue): can produce a degeneration of liver tissue of a possible precancerous nature
tumoricidal effect (NF mouse sarcoma): no tumoricidal effect

N.N.[Cl][Pt][Cl] [Cisplatin, reference compound]
in vitro HCT-15 ID50 (50 percent inhibition of number of doublings) [1]: 0.66 µg/mL
T/C × 100 (median survival time) (melanotic melanoma B16; 1 mg/kg i.p. once daily): 175%
T/C × 100 (median survival time) (melanotic melanoma B16; 2 mg/kg i.p. once daily): 212% and 136%
